Reference: paper PMC11340618 (iScience, 2024)

Tested on: intracellular Mtb ΔptpA mutant in THP-1 cells
Format: cell-based, Mycobacterium tuberculosis

## O=C(NCc1ccccn1)Nc1cc(N2CC(CCc3ccccc3)CC2=O)ccn1 (stereo not shown) [P-4423632]
  dose-dependent activity against intracellular Mtb: not against a ΔptpA mutant
